# Laboratory results published in patent publication US20260070905A1, “Derivatives of Imidazo[1,2-A]Pyridine with Anti-Inflammatory Activity” (Universitat de Veléncia, priority 2023, published 2026).
# “Also recorded” adds a separate entry of the source.
# Columns and labels:
# [1] = biological target: T1, recombinant Alk5 kinase (TGFβRI) (Homo sapiens, UniProt P36897); test: In vitro Alk5 kinase inhibition (Kinase-Glo luminescent kinase assay); assay type: biochemical; conditions: for % kinase activity reduction: values refer to a 100% reduction in activity of the inhibition control GW788388 Hydrate, concentrations of 5 and 10 μM evaluated, ATP 100 μM, 2 h; for Alk5 kinase inhibition: in vitro kinase assay (FIG. 1)
# T1 construct: purchased Abcam ab105908
# T1 sequence (P36897 34-503): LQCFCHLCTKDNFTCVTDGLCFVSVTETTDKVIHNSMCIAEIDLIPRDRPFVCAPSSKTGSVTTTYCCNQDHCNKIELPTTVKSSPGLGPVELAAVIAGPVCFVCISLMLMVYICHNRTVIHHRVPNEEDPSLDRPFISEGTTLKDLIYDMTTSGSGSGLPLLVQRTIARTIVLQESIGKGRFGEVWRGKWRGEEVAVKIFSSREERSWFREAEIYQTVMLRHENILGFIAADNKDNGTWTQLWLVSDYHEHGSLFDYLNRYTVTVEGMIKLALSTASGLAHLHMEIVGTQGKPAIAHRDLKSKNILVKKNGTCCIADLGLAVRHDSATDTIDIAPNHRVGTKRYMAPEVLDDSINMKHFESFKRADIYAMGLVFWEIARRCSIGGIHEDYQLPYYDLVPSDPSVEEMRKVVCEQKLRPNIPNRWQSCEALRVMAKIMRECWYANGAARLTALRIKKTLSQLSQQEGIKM
# Experimental: For this purpose, recombinant Alk5 (Abcam, ref ab105908) was used, and kinase activity was determined using the commercial Kinase-Glo® Luminiscent kinase assay platform (Promega, ref. TB372).
# For this purpose, commercially available recombinant Alk5 protein (Abcam, ref ab105908) was used, as well as the commercial Kinase-Glo® Luminiscent kinase assay platform (Promega, ref TB372), which determines the adenosine triphosphate (ATP) not consumed in the phosphorylation reaction by its conjugation to luciferin in a reaction catalyzed by the luciferase enzyme in the presence of Mg^2+. The luminescence observed is inversely proportional to kinase activity.
# From this stock solution, dilutions were made in kinase buffer (Tris-HCl pH 7.5 40 mM; MgCl2 20 mM; bovine serum albumin (BSA) 0.1 mg/mL) of 10 μM and concentrations of 5 and 10 μM were evaluated.
# Incubation was carried out for 2 hours at room temperature with stirring and in darkness, following the instructions for the commercial system.
# After this time, 50 μL of commercial substrate (diluted 1:8) was added, left to stir for 10 minutes at room temperature, and the luminescence was read using a Luminoskan Ascent instrument (Thermo Scientific, Waltham, USA).
# All reactions were performed in duplicate.
# [2] = tested on: Caco-2 cells; test: Viability / MTT cytotoxicity assay on Caco-2 intestinal epithelial cells; assay type: cell-based; conditions: Caco-2 epithelial cells, all concentrations used (1, 5 and 10 μM), 24 h (FIG. 3A)
# Experimental: To quantify the percentage of cells that remained viable in each of the experiments, THP-1-XBlue™-CD14 macrophages (InvivoGen, 8 to 13 passages) were evaluated, derived from human THP-1 monocytes, which stably express the gene for the alkaline phosphatase enzyme inducible by the NF-kB and AP-1 promoters. Human intestinal epithelial Caco-2 cells (ATCC®, HTB-37TM, 10 to 12 passages) were also evaluated. To do this, Trypan blue (Gibco) was used as an exclusion stain. This dye penetrates cells with damaged membranes (a sign of cell death) and stains their cytoplasm dark blue. To do this, the cell suspensions tested were centrifuged at 500×g (5 min at 24° C.), the cell sediments were resuspended in 0.1 mL of PBS, and then 10 μL were mixed with 10 μL of trypan blue (0.4%) filtered through 0.22 μm. The percentage of live cells was determined in 10 μL of the above mixture using a chamber and a Countess™ cell counter (Invitrogen).
# In this second cytotoxicity assessment on THP-1-XBlue-CD14 and Caco-2, the technique previously described was used with the MTT dye (3-(4,5-dimethylthiazol-2-yl)-2,5-diphenyltetrazolium bromide) (Biotium).
# To do this, both types of cells were seeded in 96-well plates under conditions identical to those used in the anti-inflammation assays. The cells were then washed with PBS and treated with different compounds: 1) PBS (10 μL) (positive growth control, vehicle); 2) 20% DMSO (negative control, as high doses of this compound are cytotoxic); 3) different concentrations of the compounds PS1801 and PS1906 (1, 5, and 10 μM). The plates were incubated for 24 hours at 37° C., 5% CO2, and then 10 μL of MTT was added to each well and the plate was incubated for 4 hours at 37° C., 5% CO2. The formazan crystals formed were dissolved in 180 μL of DMSO, and the plate was incubated for 20 minutes with shaking at room temperature. The absorbance was measured in each well at 595 nm (problem) and 655 nm (background), following the manufacturer's instructions, using an iMark™ Microplate Absorbance Reader (Bio-Rad). The samples were analyzed in triplicate.
# [3] = tested on: acute lung injury (ALI) induced by LPS; test: Murine model of acute lung injury (ALI) induced by intratracheal LPS; assay type: in vivo, mouse (C57BL/6J-OlaHsd); conditions: mice
# Text: In order to evaluate the potential anti-inflammatory effect of the PS1906 molecule in an in vivo model, we selected the ALI model induced by tracheal instillation of lipopolysaccharide (LPS), which has been widely described in the literature and previously performed by members of the research group (Clemente-Moragón et al., 2020). This murine model is a model of acute lung inflammation or damage associated with a long-term fibrotic period, so it can be used to study both inflammatory lung diseases and pulmonary fibrotic processes.
# Mice of the C57BL/6J-OlaHsd strain were chosen for this model. Adult mice were kept in pathogen-free conditions in a temperature-controlled room with a 12-hour light-dark cycle. Food and water were available ad libitum. The mice were anesthetized intraperitoneally with an injection of an anesthetic cocktail containing atropine sulfate (1 mg/kg; B. Braun, 1 mg/mL), xylazine hydrochloride (20 mg/kg; Rompun® Bayer, 20 mg/mL), and ketamine (100 mg/kg; Anesketin Dechra, 100 mg/mL). All experimental and other scientific procedures involving animals complied with EU Directive 2010/63EU and Recommendation 2007/526/EC, enacted into Spanish law under Real Decreto 53/2013. Animal protocols were approved by local ethics committees and the Animal Protection Area of the Autonomous Community of Madrid.
# In vitro studies were taken into account when selecting the doses to be administered, with a concentration of 10 μM being considered the maximum effective (non-toxic) concentration. Assuming an approximate blood volume of 2 mL for a mouse weighing about 30 g, and taking into account a loss due to distribution, metabolism, or secretion of 50% of the products, we calculated dose 1 (D1) and selected dose 2 (D2) as twice the first. Thus, taking into account the respective molecular weights, the corresponding doses for the PS1906 product were 156 μg/kg (D1) and 312 μg/kg (D2). Physiological saline was used as a diluent for the preparation of the different doses. All doses were prepared to administer the same volume in the mouse. The doses were administered intravenously with the animal properly anesthetized moments before the induction of pulmonary inflammation. […]
# After 24 h, the animals were sacrificed and the lungs were washed with 1.5 mL of cold PBS through a tracheal catheter (Introcan Safety 22G, Braun), and a total of 1 mL of bronchoalveolar lavage fluid was extracted from each mouse for the detection of neutrophils and lymphocytes by flow cytometry. […] The data were analyzed with FlowJo software (Ashland). […]
# [4] = tested on: THP-1-XBlue™-CD14 macrophages; test: MTT cytotoxicity assay on THP-1-XBlue-CD14 macrophages; assay type: cell-based; conditions: THP-1 macrophages, all concentrations used (1, 5 and 10 μM), 24 h (FIG. 2, FIG. 3B)
# Text: To quantify the percentage of cells that remained viable in each of the experiments, THP-1-XBlue™-CD14 macrophages (InvivoGen, 8 to 13 passages), derived from human THP-1 monocytes, which stably express the gene for the alkaline phosphatase enzyme inducible by the NF-kB and AP-1 promoters.
# The MTT dye (3-(4,5-dimethylthiazol-2-yl)-2,5-diphenyltetrazolium bromide) (Biotium) was used. This assay is based on the cleavage of the yellow MTT tetrazolium salt to form purple formazan crystals, produced by metabolically active cells. Formazan is solubilized with DMSO and its concentration is determined by spectrophotometry; the optical density is proportional to the number of viable cells.
# To do this, the cells were seeded in 96-well plates at a density of 3×10^5 cells/mL in RPMI 1640 medium (Gibco) supplemented with 10% FBS, penicillin, streptomycin (both at a concentration of 100 μg/mL, Sigma-Aldrich), and PMA (100 ng/mL) (Sigma-Aldrich), and were cultured at 37° C., 5% CO2 for 48 h. […] The absorbance was measured in each well at 595 nm (problem) and 655 nm (background), following the manufacturer's instructions, using an iMark™ Microplate Absorbance Reader (Bio-Rad). The samples were analyzed in triplicate. The percentage of viable cells was calculated using the following formula: […]
Structure (SMILES),% kinase activity reduction [1],cytotoxic effects (cell viability) [2],"ALI score (histopathological lung damage) ([3]; i.v. 156 μg/kg (D1) and 312 μg/kg (D2), LPS 10 mg/kg intratracheal, 24 h (FIG. 6A, 6B), listed as PS1906)","neutrophils in bronchoalveolar lavage fluid (flow cytometry) ([3]; i.v. 156 μg/kg (D1) and 312 μg/kg (D2), LPS 10 mg/kg intratracheal, 24 h (FIG. 6C))","lymphocytes in bronchoalveolar lavage fluid (flow cytometry) ([3]; i.v. 156 μg/kg (D1) and 312 μg/kg (D2), LPS 10 mg/kg intratracheal, 24 h (FIG. 6D), not statistically significant)","total number of infiltrated cells in bronchoalveolar lavage fluid (flow cytometry) ([3]; i.v. D1 and D2, LPS intratracheal, 24 h)",Alk5 kinase inhibition [1],cytotoxic effects (cell viability) [4]
"Oc1ccc(-c2ccn3ccnc3c2)cc1 [Compound 12, 4-(Imidazo[1,2-a]pyridin-7-yl)phenol]",87.5%,–,–,–,–,–,–,–
"COc1ccc(-c2cn3ccc(-c4ccc(O)cc4)cc3n2)cc1 [Compound 16, 4-(2-(4-Methoxyphenyl)imidazo[1,2-a]pyridin-7-yl)phenol]",75.4%,–,–,–,–,–,–,–
"c1ccc2oc(-c3ccn4ccnc4c3)cc2c1 [Compound 26, 7-(Benzofuran-2-yl)imidazo[1,2-a]pyridine]",93.4%,no cytotoxic effects,significantly different from the group of sick mice treated with LPS; also recorded: positive effect,dose-dependent anti-inflammatory effect,dose-dependent anti-inflammatory effect,dose-dependent anti-inflammatory effect,one of those that showed the greatest inhibitory effect,–
"CCOC(=O)c1cc2cc(-c3cnc4ccccn34)ccc2[nH]1 [Compound 31, Ethyl 5-(imidazo[1,2-a]pyridin-3-yl)-1H-indole-2-carboxylate]",79.1%,no cytotoxic effects,–,–,–,–,–,–
"O.O=C(NC1CCOCC1)c1ccc(-c2cc(-c3c[nH]nc3-c3ccccn3)ccn2)cc1 [GW788388, 4-{4-[3-(pyridin-2-yl)-1H-pyrazol-4-yl]-pyridin-2-yl}-N-(tetrahydro-2H-pyran-4-yl)benzamide hydrate, reference compound]",–,lacking cytotoxic activity,–,–,–,–,approximately 25%,lacking cytotoxic activity
